Laboratory results from patent US20180057507A1, “INHIBITORS OF DUAL LEUCINE ZIPPER (DLK) KINASE FOR THE TREATMENT OF DISEASE” (Board of Regents, The University of Texas System, priority 2016, published 2018).

Tests used:
human DLK [1] = biological target: T1, human DLK (Homo sapiens, UniProt Q12852); experiment: DLK Kd Determinations (KINOMEscan KdELECT, DiscoveRx); design: full length of human DLK (amino acids 1-859); host or cells: transiently transfected HEK293 cells; unpurified extract; details: fusion protein of full length human DLK (amino acids 1-859) and NFkB DNA binding domain; qPCR readout; duplicate
T1 sequence (Q12852 1-859): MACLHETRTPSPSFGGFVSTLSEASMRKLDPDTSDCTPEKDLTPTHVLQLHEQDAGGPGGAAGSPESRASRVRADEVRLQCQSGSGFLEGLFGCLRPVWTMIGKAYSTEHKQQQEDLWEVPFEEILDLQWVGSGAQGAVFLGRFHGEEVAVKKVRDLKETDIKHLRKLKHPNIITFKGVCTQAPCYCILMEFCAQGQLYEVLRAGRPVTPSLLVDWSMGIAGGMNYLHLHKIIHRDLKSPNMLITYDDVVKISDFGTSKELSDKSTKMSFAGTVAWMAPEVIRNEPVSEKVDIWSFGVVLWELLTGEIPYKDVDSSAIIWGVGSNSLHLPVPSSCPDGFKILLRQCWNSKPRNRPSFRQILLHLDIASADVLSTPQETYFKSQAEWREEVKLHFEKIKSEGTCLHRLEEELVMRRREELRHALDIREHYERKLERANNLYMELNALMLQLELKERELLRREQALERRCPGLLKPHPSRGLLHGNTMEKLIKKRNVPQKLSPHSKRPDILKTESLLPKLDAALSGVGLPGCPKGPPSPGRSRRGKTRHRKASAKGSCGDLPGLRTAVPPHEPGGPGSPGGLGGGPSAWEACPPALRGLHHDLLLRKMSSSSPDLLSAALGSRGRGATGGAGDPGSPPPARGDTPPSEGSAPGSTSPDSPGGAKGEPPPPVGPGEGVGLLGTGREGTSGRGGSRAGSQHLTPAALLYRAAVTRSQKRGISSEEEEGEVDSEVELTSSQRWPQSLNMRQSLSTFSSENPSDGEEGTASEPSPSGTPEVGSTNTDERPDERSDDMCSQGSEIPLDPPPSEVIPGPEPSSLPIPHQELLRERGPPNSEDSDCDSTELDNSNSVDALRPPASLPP
Summary of the method: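 Competition binding of full-length human DLK (aa 1-859)-NFkB DBD fusion, DNA-tagged, from HEK293 extracts against an immobilized ligand; 1 h at room temperature, 0.9% DMSO. Bead-bound kinase was quantified by qPCR. Kd came from an 11-point 3-fold series (top 30,000 nM), in duplicate, with Hill slope fixed at −1.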

human DLK [2] = biological target: T1, human DLK; experiment: Phospho-cJun Cellular Assay; format: cell-based; design: expressed in transfected cells; details: HEK293 cells stably transfected with Dox-inducible human DLK; p-cJun (Ser63); 5 h compound incubation
Procedure: Phospho-cJun Cellular Assay
HEK293 cells stably transfected with a Dox-inducible human DLK were plated into a 384-well plate in 20 μl (40,000 cells/well) of DMEM medium (without phenol red) containing 10% fetal bovine serum, 1.5 μg/ml doxycycline and 1 μg/ml puromycin. The cells as negative control were grown in the absence of doxycycline. The plate was incubated at 37° C., 5% CO2 for 20 h, before DMSO (control) or compounds diluted in medium were added. The cells were incubated at 37° C. for an additional 5 h, followed by lysis and the addition detection antibodies from p-cJun (Ser63) cellular assay kit (Cisbio) per manufacturer protocol. The standard dose response curves were fitted by Genedata Screener software using the variable-slope model: Signal=Signalnegative control+(SignalDMSO control−Signalnegative control)/(1+(IC50/Dose)̂Hill slope). Only signal and dose in the equation were treated as known values.

| SMILES | Kd (human DLK [1]) | IC50 (human DLK [2]) |
| --- | --- | --- |
| CC(C)c1nc(-c2cnc(N)c(OC(F)(F)F)c2)cn1[C@H]1[C@@H]2CN(C3CCOCC3)C[C@@H]21 [Example 81, 5-(2-isopropyl-1-((1R,5S,6s)-3-(tetrahydro-2H-pyran-4-yl)-3-azabicyclo[3.1.0]hexan-6-yl)-1H-imidazol-4-yl)-3-(trifluoromethoxy)pyridin-2-amine] | 99 nM | 1510 nM |
| Nc1ncc(-c2cn([C@H]3[C@@H]4CN(C5COC5)C[C@@H]43)c(C3CC3)n2)cc1OC(F)(F)F [Example 65, 5-(2-cyclopropyl-1-((1R,5S,6s)-3-(oxetan-3-yl)-3-azabicyclo[3.1.0]hexan-6-yl)-1H-imidazol-4-yl)-3-(trifluoromethoxy)pyridin-2-amine] | 32 nM | 1050 nM |
| CC(C)c1nc(-c2cnc(N)c(C(F)(F)F)c2)cn1[C@H]1[C@@H]2CC(N3CCN(C)CC3)C[C@@H]21 (some centres unmarked) [Example 144, 5-(2-isopropyl-1-(3-(4-methylpiperazin-1-yl)bicyclo[3.1.0]hexan-6-yl)-1H-imidazol-4-yl)-3-(trifluoromethyl)pyridin-2-amine] | 38 nM | 859 nM |
| CC(C)c1nc(-c2cnc(N)c(OC(F)(F)F)c2)cn1[C@H]1[C@@H]2CN(C3COC3)C[C@@H]21 [Example 80, 5-(2-isopropyl-1-((1R,5S,6s)-3-(oxetan-3-yl)-3-azabicyclo[3.1.0]hexan-6-yl)-1H-imidazol-4-yl)-3-(trifluoromethoxy)pyridin-2-amine] | 42 nM | 1670 nM |
| CC(C)c1nc(-c2cnc(N)c(OC(F)(F)F)c2)cn1C1CC2(CC(N3CCOCC3)C2)C1 (centres unmarked) [Example 39, 5-(2-isopropyl-1-(6-morpholinospiro[3.3]heptan-2-yl)-1H-imidazol-4-yl)-3-(trifluoromethoxy)pyridin-2-amine] | 30 nM | 771 nM |
| CC(C)c1nc(-c2cnc(N)c(OC(F)(F)F)c2)cn1[C@H]1[C@@H]2CC(N3CCOCC3)C[C@@H]21 (single isomer, unassigned) [Example 19a] | 76 nM | 666 nM |
| Nc1ncc(-c2cn([C@H]3[C@@H]4CN(C5CCOCC5)C[C@@H]43)c(C3CC3)n2)cc1OC(F)(F)F [Example 66, 5-(2-cyclopropyl-1-((1R,5S,6s)-3-(tetrahydro-2H-pyran-4-yl)-3-azabicyclo[3.1.0]hexan-6-yl)-1H-imidazol-4-yl)-3-(trifluoromethoxy)pyridin-2-amine] | 59 nM | 827 nM |
| CC(C)c1nc(-c2cnc(N)c(C(F)(F)F)c2)cn1C1CCC1 [Example 7, 5-[1-cyclobutyl-2-(propan-2-yl)-1H-imidazol-4-yl]-3-(trifluoromethyl)pyridin-2-amine] | 66 nM | 1070 nM |
| Nc1ncc(-c2cn([C@H]3[C@@H]4CN(CCF)C[C@@H]43)c(CC3CC3)n2)cc1OC(F)F [Example 116, 5-(2-(cyclopropylmethyl)-1-((1R,5S,6s)-3-(2-fluoroethyl)-3-azabicyclo[3.1.0]hexan-6-yl)-1H-imidazol-4-yl)-3-(difluoromethoxy)pyridin-2-amine] | 53 nM | 1440 nM |
| Nc1ncc(-c2cn([C@H]3[C@@H]4CN(C5COC5)C[C@@H]43)c(CC3CC3)n2)cc1OC(F)(F)F [Example 92, 5-(2-(cyclopropylmethyl)-1-((1R,5S,6s)-3-(oxetan-3-yl)-3-azabicyclo[3.1.0]hexan-6-yl)-1H-imidazol-4-yl)-3-(trifluoromethoxy)pyridin-2-amine] | 55 nM | 1820 nM |
| CC(C)c1nc(-c2cnc(N)c(C(F)(F)F)c2)cn1C1CC2(C1)CN(C1COC1)C2 [Example 31, 5-(2-isopropyl-1-(2-(oxetan-3-yl)-2-azaspiro[3.3]heptan-6-yl)-1H-imidazol-4-yl)-3-(trifluoromethyl)pyridin-2-amine] | 82 nM | 2150 nM |
| CC(C)c1nc(-c2cnc(N)c(C(F)(F)F)c2)cn1[C@H]1C[C@@H](N2CCOCC2)C1 [Example 44, 5-(2-isopropyl-1-((1s,3s)-3-morpholinocyclobutyl)-1H-imidazol-4-yl)-3-(trifluoromethyl)pyridin-2-amine] |  | 7690 nM |
| CC(C)c1nc(-c2cnc(N)c(C(F)(F)F)c2)cn1C1CC(N2CCOCC2)C1 (centres unmarked) [Example 37, 5-(2-isopropyl-1-(3-morpholinocyclobutyl)-1H-imidazol-4-yl)-3-(trifluoromethyl)pyridin-2-amine] | 92 nM |  |
| CC(C)c1nc(-c2cnc(N)c(C(F)(F)F)c2)cn1[C@H]1[C@@H]2CNC[C@@H]21 [Example 11, 5-(1-(3-azabicyclo[3.1.0]hexan-6-yl)-2-isopropyl-1H-imidazol-4-yl)-3-(trifluoromethyl)pyridin-2-amine] | 120 nM |  |
| CC(C)c1nc(-c2cnc(N)c(C(F)(F)F)c2)cn1[C@H]1[C@@H]2CN(CC(F)F)C[C@@H]21 [Example 17, 5-(1-((1R,5S,6s)-3-(2,2-difluoroethyl)-3-azabicyclo[3.1.0]hexan-6-yl)-2-isopropyl-1H-imidazol-4-yl)-3-(trifluoromethyl)pyridin-2-amine] | 170 nM |  |

Second part, the compound after the results:

| Kd (human DLK [1]) | IC50 (human DLK [2]) | SMILES |
| --- | --- | --- |
| 33 nM | 589 nM | CC(C)Cc1nc(-c2cnc(N)c(OC(F)(F)F)c2)cn1[C@H]1[C@@H]2CC(N3CCN(CCF)CC3)C[C@@H]21 (single isomer, unassigned) [Example 159a, 5-(1-(3-(4-(2-fluoroethyl)piperazin-1-yl)bicyclo[3.1.0]hexan-6-yl)-2-isobutyl-1H-imidazol-4-yl)-3-(trifluoromethoxy)pyridin-2-amine] |
| 57 nM | 895 nM | CC(C)c1nc(-c2cnc(N)c(OC(F)(F)F)c2)cn1[C@H]1[C@@H]2CC(N3CCOC[C@@H]3C)C[C@@H]21 (single isomer, unassigned) [Example 157a] |
| 13 nM | 1150 nM | Nc1ncc(-c2cn([C@H]3[C@@H]4CC(N5CCN(CCF)CC5)C[C@@H]43)c(CC3CC3)n2)cc1OC(F)(F)F (single isomer, unassigned) [Example 152b, 5-(2-(cyclopropylmethyl)-1-(3-(4-(2-fluoroethyl)piperazin-1-yl)bicyclo[3.1.0]hexan-6-yl)-1H-imidazol-4-yl)-3-(trifluoromethoxy)pyridin-2-amine] |
| 15 nM | 965 nM | CC(C)c1nc(-c2cnc(N)c(OC(F)(F)F)c2)cn1[C@H]1[C@@H]2CC(N3CCCOCC3)C[C@@H]21 (single isomer, unassigned) [Example 20a, 5-(1-(3-(1,4-oxazepan-4-yl)bicyclo[3.1.0]hexan-6-yl)-2-isopropyl-1H-imidazol-4-yl)-3-(trifluoromethoxy)pyridin-2-amine] |
| 16 nM | 633 nM | CN1CCN(C2C[C@@H]3[C@H](C2)[C@H]3n2cc(-c3cnc(N)c(C(F)(F)F)c3)nc2C2CC2)CC1 (single isomer, unassigned) [Example 129b, 5-(2-cyclopropyl-1-(3-(4-methylpiperazin-1-yl)bicyclo[3.1.0]hexan-6-yl)-1H-imidazol-4-yl)-3-(trifluoromethyl)pyridin-2-amine] |
|  | 1040 nM | Nc1ncc(-c2cn([C@H]3[C@@H]4CC(N5CCN(CCF)CC5)C[C@@H]43)c(CC3CC3)n2)cc1C(F)(F)F (single isomer, unassigned) [Example 162a, 5-(2-(cyclopropylmethyl)-1-(3-(4-(2-fluoroethyl)piperazin-1-yl)bicyclo[3.1.0]hexan-6-yl)-1H-imidazol-4-yl)-3-(trifluoromethyl)pyridin-2-amine] |
|  | 629 nM | CN1CCN(C2C[C@@H]3[C@H](C2)[C@H]3n2cc(-c3cnc(N)c(C(F)(F)F)c3)nc2CC2CC2)CC1 (single isomer, unassigned) [Example 161b, 5-(2-(cyclopropylmethyl)-1-(3-(4-methylpiperazin-1-yl)bicyclo[3.1.0]hexan-6-yl)-1H-imidazol-4-yl)-3-(trifluoromethyl)pyridin-2-amine] |
